In patent publication US10189795B2, “Aryl amine substituted quinoxaline used as anticancer drugs” (priority 2014, dated 2019):

Tests used:
[1] = tested on: SW900; experiment: cell viability of SW900 cells, 1 and 10 uM; format: cell-based; conditions: Homo sapiens
Method: [Worded in the source for another cell line; this cell line is reported under the same test.] (§1) Sorafenib (Nexavar), erlotinib (Tarceva) and Paclitaxel were kindly provided by Bayer Pharmaceuticals (Pittsburgh, Pa., USA) and Roche Pharmaceuticals (Basel, Switzerland) respectively. Okadaic acid (OA) was purchased from Cayman Chemical (Ann Arbor, Mich., USA) and z-VAD-fmk was obtained from Sigma (St. Louis, Mo., USA). For in vitro studies, drugs at various concentrations were dissolved in dimethyl sulfoxide (DMSO), and added to cells in Dulbecco's modified Eagle's medium (DMEM) or Roswell Park Memorial Institute (RPMI) containing 5% fetal bovine serum (FBS).
(§2) The Sk-Hep1, PLC/PRF/5 (PLC) and Hep3B cell lines were obtained from American Type Culture Collection (ATCC; Manassas, Va., USA). The Huh-7 HCC cell line was obtained from the Health Science Research Resources Bank (HSRRB; Osaka, Japan; JCRB0403). Cells were maintained in DMEM supplemented with 10% FBS in a 37° C. humidified incubator in an atmosphere of 5% CO^2 in air.

[2] = tested on: NCI-1703; experiment: cell viability of NCI-1703 cells, 1 and 10 uM of each erlotinib derivative, and IC50; format: cell-based; conditions: Homo sapiens; for IC50: cell viability
Method: [Worded in the source for another cell line; this cell line is reported under the same test.] as §1, §2

[3] = tested on: H520; experiment: cell viability of H520 cells, 1 and 10 uM; format: cell-based; conditions: Homo sapiens, NCI-H520
Method: [Worded in the source for another cell line; this cell line is reported under the same test.] as §1, §2

[4] = tested on: H358; experiment: cell viability of H358 cells, 1 and 10 uM; format: cell-based; conditions: Homo sapiens, NCI-H358
Method: [Worded in the source for another cell line; this cell line is reported under the same test.] as §1, §2

[5] = tested on: A549; experiment: cell viability of A549 cells, 1 and 10 uM; format: cell-based; conditions: Homo sapiens
Method: [Worded in the source for another cell line; this cell line is reported under the same test.] as §1, §2

[6] = tested on: NCI-H226; experiment: cell viability of NCI-H226 cells, 1 and 10 uM; format: cell-based; conditions: Homo sapiens
Method: [Worded in the source for another cell line; this cell line is reported under the same test.] as §1, §2

[7] = tested on: H2170; experiment: cell viability of H2170 cells, 1 and 10 uM; format: cell-based; conditions: Homo sapiens, NCI-H2170
Method: [Worded in the source for another cell line; this cell line is reported under the same test.] as §1, §2

[8] = molecular target: T1, SET-PP2Ac binding (Homo sapiens, UniProt Q01105); experiment: disruption of SET-PP2Ac binding (surface plasmon resonance, co-IP)
T1 construct: His; purchased Genway (SET-His); Abnova (PP2Ac-GST) GWB-ATG319; H00005515
Method: Binding affinities of full-length SET and truncated SET to PP2Ac and the effect of the erlotinib derivatives of the present invention on disrupting SET and PP2Ac were analyzed. PP2Ac-GST recombinant protein was bound in the CMS chip pre-coated with GST-capture antibodies. Sensorgrams were generated by injecting several concentrations of the erlotinib derivatives of the present invention mixed with fixed-concentration of SET recombinant protein, or the mixture of different concentration of truncated SET proteins in a fixed-dose EMQA. PP2Ac-GST recombinant protein used for this experiment was purchased from Abnova (H00005515) and SET-His recombinant protein was obtained from Genway (GWB-ATG319).
EMQA reactivates PP2A by disrupting the binding of SET-PP2Ac. To validate the role of SET, the present invention generated Hep3B cells with ectopic expression of myc-tagged SET by transient transfection. […] With a fixed amount of PP2Ac coated on the CM chip, the present invention tested the effects of a fixed-dose of EMQA on interfering different proportions of full-length and truncated forms of SET proteins in SPR system. […] To validate the findings of this ex vivo system, the present invention generated cells with ectopic overexpression of these two truncated forms of Flag-tagged SET proteins by transient transfections.

[9] = tested on: PP2A; experiment: PP2A phosphatase activity (malachite green-phosphate assay in cell lysate); format: cell-based
Method: The protein phosphatase activity in each cell lysate was determined by measuring the generation of free phosphate from threonine phosphopeptide using the malachite green-phosphate complex assay as described by the manufacturer (Upstate Biotechnology, Lake Placid, N.Y., USA). In brief, HCC cell lysates were first prepared in a low-detergent lysis buffer. […] After incubation for 10 min at 30° C., the malachite dye was added and free phosphate was measured by optical density at 650 nm. In order to avoid variation resulting from differences in the amount of immunoprecipitation protein between samples, the phosphatase activities were normalized to the amounts of PP2A immunoprecipitated, which were detected and quantified by immunoblot analysis for each treatment group.

T1 sequence (Q01105 1-277 isoform Q01105-2): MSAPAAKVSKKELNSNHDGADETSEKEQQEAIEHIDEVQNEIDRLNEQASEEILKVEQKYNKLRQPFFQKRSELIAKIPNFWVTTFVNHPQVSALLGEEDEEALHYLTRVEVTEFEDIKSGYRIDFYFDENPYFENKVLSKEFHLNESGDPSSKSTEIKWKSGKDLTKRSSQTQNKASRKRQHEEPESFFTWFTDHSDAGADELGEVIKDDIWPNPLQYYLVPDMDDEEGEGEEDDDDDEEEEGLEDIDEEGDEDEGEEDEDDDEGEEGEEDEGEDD

| Compound | viability at 1 µM [1] [%] | viability at 1 µM [2] [%] | viability at 10 µM [2] [%] | IC50 [2] [µM] | viability at 1 µM [3] [%] | viability at 10 µM [3] [%] | viability at 1 µM [4] [%] | viability at 10 µM [4] [%] | viability at 1 µM [5] [%] | viability at 10 µM [5] [%] | viability at 1 µM [6] [%] | viability at 10 µM [6] [%] | viability at 1 µM [7] [%] | viability at 10 µM [7] [%] | viability at 10 µM [1] [%] | minimal concentration to disrupt SET-PP2Ac binding [8] [nM] | minimal concentration for PP2A activation [9] [nM] |
| --- | --- | --- | --- | --- | --- | --- | --- | --- | --- | --- | --- | --- | --- | --- | --- | --- | --- |
| c1ccc(Oc2ccc(Nc3nc4ccccc4nc3Nc3ccc(Oc4ccccc4)cc3)cc2)cc1 [TD53, N^2,N^3-bis(4-phenoxyphenyl)quinoxaline-2,3-diamine] | 121 ± 9.01 | 68.4 ± 1.4 | 46.7 ± 0.2 | 7.4 | 101.7 ± 0.34 | 10.6 ± 0.58 | 120 ± 9.2 | 41.9 ± 3.9 | 99.4 ± 6.9 | 82.7 ± 99.9 | 86.2 ± 5.7 | 56.8 ± 2.7 | 99.7 ± 6 | 59.2 ± 1.25 |  |  |  |
| c1ccc(Nc2nc3ccccc3nc2Nc2ccccc2)cc1 [TD55, N^2,N^3-diphenylquinoxaline-2,3-diamine] | 100 ± 6.69 | 64.2 ± 5.3 | 49.9 ± 4.8 | 8.3 | 89.9 ± 1.02 | 59.2 ± 15.8 | 110 ± 14.2 | 42.1 ± 0.6 | 100 ± 7.2 | 36.5 ± 5.9 | 106 ± 17.3 | 96.4 ± 7.4 | 102.7 ± 0.73 | 94.8 ± 6.05 | 88.3 ± 1.29 |  |  |
| Cc1ccc(F)c(Nc2nc3ccccc3nc2Nc2cc(C)ccc2F)c1 [TD58, N^2,N^3-bis(2-fluoro-5-methylphenyl)quinoxaline-2,3-diamine] | 111 ± 1.54 | 127 ± 2.9 | 98.9 ± 1.1 |  | 96.2 ± 1.22 | 95.6 ± 4.66 |  |  |  |  | 123 ± 3.6 | 74.9 ± 1.5 | 92.8 ± 2.03 | 83 ± 3.41 | 91.8 ± 9.78 |  |  |
| CCc1cccc(Nc2nc3ccccc3nc2Nc2cccc(CC)c2)c1 [TD59, N^2,N^3-bis(3-ethylphenyl)quinoxaline-2,3-diamine] | 110 ± 1.8 | 114 ± 7.4 | 26.4 ± 0.7 |  | 88.3 ± 1.5 | 0.41 ± 0.32 | 117 ± 12.1 | 19 ± 1.5 | 164.6 ± 0.1 | 24.1 ± 3.9 | 122 ± 2.6 | 32.5 ± 2.5 | 88.4 ± 2.01 | 8.96 ± 1.43 |  |  |  |
| FC(F)(F)c1cccc(Nc2nc3ccccc3nc2Nc2cccc(C(F)(F)F)c2)c1 [TD60, N^2,N^3-bis(3-(trifluoromethyl)phenyl)quinoxaline-2,3-diamine] | 19.3 ± 6.18 | 51.9 ± 2.9 | 26.1 ± 0.8 |  | 21.8 ± 1.52 | 0.36 ± 0.18 | 55.3 ± 1.9 | 18.1 ± 1.3 | 91.3 ± 4 | 21.8 ± 1.4 | 92.5 ± 1.7 | 15.9 ± 1 | 72.3 ± 0.89 | 0.41 ± 0.65 |  |  |  |
| N#CCc1ccc(Nc2nc3ccccc3nc2Nc2ccc(CC#N)cc2)cc1 [TD62, 2,2′-((quinoxaline-2,3-diylbis(azanediyl))bis(4,1-phenylene))diacetonitrile] | 128 ± 1.8 | 112 ± 3.6 | 65.2 ± 0.6 |  | 103 ± 1.7 | 100 ± 2.46 | 121 ± 2.2 | 97.4 ± 8.1 | 166 ± 23.1 | 120 ± 29 | 86 ± 2 | 90.1 ± 8.2 | 92.5 ± 1.41 | 85.3 ± 4.56 | 128 ± 6.18 |  |  |
| FC(F)(F)c1cc(Nc2nc3ccccc3nc2Nc2ccc(Cl)c(C(F)(F)F)c2)ccc1Cl [TD63, N^2,N^3-bis(4-chloro-3-(trifluoromethyl)phenyl)quinoxaline-2,3-diamine] | 54.8 ± 3.35 | 54.5 ± 5.5 | 28.8 ± 7.9 |  | 28.5 ± 0.58 | 0.45 ± 0.14 | 66.8 ± 8.5 | 16.2 ± 1.3 | 79.2 ± 7.8 | 21.9 ± 2.2 | 99.9 ± 4.3 | 19.6 ± 0.4 | 78.5 ± 1.28 | 9.13 ± 0.63 | 3.28 ± 4.63 | <100 | 100 to 200 |
| FC(F)(F)c1cc(Nc2nc3ccccc3nc2Cl)ccc1Cl [TD79, 3-chloro-N-(4-chloro-3-(trifluoromethyl)phenyl)quinoxalin-2-amine] | 98.9 ± 3.79 | 123.7 ± 0.9 | 64.8 ± 4.5 |  | 96.6 ± 5.57 | 99 ± 6.01 | 114 ± 2.4 | 87.7 ± 1.8 | 96.5 ± 4.4 | 71.6 ± 10.1 | 131 ± 14.3 | 125 ± 10.5 | 98.5 ± 1.56 | 102 ± 5.66 | 88.2 ± 19.9 |  |  |
| COc1ccc(Nc2nc3ccc([N+](=O)[O-])cc3nc2Nc2ccc(OC)cc2)cc1 [TD602, N^2,N^3-bis(4-methoxyphenyl)-6-nitroquinoxaline-2,3-diamine] | 120 ± 5.8 | 42 ± 1.1 | 9.8 |  | 104 ± 2.31 | 0.89 ± 0.41 | 58.3 ± 9.2 | 12 ± 0.5 | 47.4 ± 2.4 | 10 ± 0.8 | 98.1 ± 5.9 | 8.1 ± 0.4 | 112 ± 3.97 | 7.14 ± 4.42 | 2.05 ± 2.45 |  |  |
| COc1ccc(Nc2nc3ccc([N+](=O)[O-])cc3nc2Nc2cccc(O)c2)cc1 [TD612, 3-(2-(4-methoxyphenylamino)-6-nitroquinoxalin-3-ylamino)phenol] | 105 ± 3.4 | 82.7 ± 2.4 | 13.4 ± 0.7 |  | 107 ± 2.62 | 12.9 ± 1.2 | 97.3 ± 13.4 | 12.8 ± 0.4 | 90.6 ± 18.2 | 10.3 ± 1.2 | 69.4 ± 6.8 | 38 ± 1.4 | 107 ± 4.84 | 22.5 ± 11.8 | 64.7 ± 4 |  | <100 |
| O=[N+]([O-])c1ccc2nc(Nc3cccc(O)c3)c(Nc3cccc(O)c3)nc2c1 [TD613, 3-(2-(3-hydroxyphenylamino)-6-nitroquinoxalin-3-ylamino)phenol] | 116 ± 7.2 | 86 ± 0.5 | 24.8 ± 2 |  | 99.45 ± 0.5 | 18.8 ± 0.22 | 69.9 ± 60.7 | 12 ± 0.5 | 105 ± 3.4 | 9.5 ± 0.7 | 75.5 ± 7.9 | 7 ± 0.3 | 108 ± 1.99 | 11.6 ± 1.38 | 80.9 ± 3.8 |  |  |
| O=[N+]([O-])c1ccc2nc(Nc3cccc(Br)c3)c(Nc3cccc(Br)c3)nc2c1 [TD618, N^2,N^3-bis(3-bromophenyl)-6-nitroquinoxaline-2,3-diamine] |  | 48.3 ± 4.8 | 31.9 ± 5 |  |  |  | 36.6 ± 1.6 | 20.4 ± 3.5 | 53.2 ± 6.3 | 26.9 ± 7 | 49.6 ± 9.4 | 16.7 ± 1.1 |  |  |  | >200 | >200 |
